Consider three compounds from ChEMBL document CHEMBL1155713, “Three new peroxides from the sponge Plakinastrella species” (2001).

Usually MIC stands for the least concentration at which growth counts as inhibited. The IC90 is the point of the concentration-response curve where the effect stands at 90%. Low values mean an effect from little substance, high ones a need for much substance.

Format in all cases: functional
Assay [1] has as its system Candida albicans. Description: Antifungal activity against Candida albicans in Sabouraud dextrose broth.
Assay [2] deals with Candida albicans. Description: Antifungal activity against Candida albicans in RPMI medium.
For a further assay, the system named is Aspergillus fumigatus. Kind of assay: Antifungal activity against Aspergillus fumigatus.

In brackets after ≈: the same amount, converted by molar mass.

With `CC/C=C/C=C/C=C/CCCCCCCC[C@@]1(C)C[C@](C)(CC(=O)O)OO1` [EPIPLAKINIC ACID F], the figures for the minimum inhibitory concentration (MIC) with Candida albicans [1] and against Candida albicans [2] were 25 µg/mL (≈ 66 µM) and 6.25 µg/mL (≈ 16.5 µM), respectively. For the same compound, the 90% effect concentration (IC90) with Aspergillus fumigatus came out at 25 µg/mL (≈ 66 µM).
On to `CC/C=C/C=C/C=C/CCCCCCCC[C@]1(C)C[C@](C)(CC(=O)O)OO1` [PLAKINIC ACID F], for which the minimal inhibitory concentration (MIC) against Candida albicans [1] was determined as 25 µg/mL (≈ 66 µM); against Candida albicans [2], 3.1 µg/mL (≈ 8.19 µM). Moreover, the IC90 with Aspergillus fumigatus was 25 µg/mL (≈ 66 µM).
As to `C[C@@]1(CCCCCCCCCc2ccc(O)cc2)C[C@]2(C)OC(=O)C[C@@H]2OO1` [PLAKORTOLIDE F], the MIC against Candida albicans [1] and against Candida albicans [2] was above 125 µg/mL in each case. In the assay on Aspergillus fumigatus, the IC90 was above 125 µg/mL.
